pIC50: −log10 of the molar value.
What was measured:
Assay type in all cases: biochemical
human HDAC1 = biological target: T1, human HDAC1 (Homo sapiens, UniProt Q13547); assay: Human HDAC enzyme inhibitor Fluor-de-Lys assay, HDAC1; conditions: 0.3 nM enzyme, 20 μM substrate BML-KI104, 3 h pre-incubation, 60 min reaction; read-out: HDAC1_IC50
T1 construct: Full length human HDAC1-FLAG was stably expressed in HEK-293F cells; host or cells: HEK-293F cells
Excerpt: (§1) Recombinant human HDAC8 (catalog number BML-SE145-0100) and HDAC10 (catalog number BML-SE559-0050) enzymes, HDAC substrates BML-KI104 and BML-KI178, and HDAC developer solutions BML-KI105 and BML-KI176 were purchased from Enzo Life Sciences (Farmingdale, NY). Recombinant human HDAC5 and HDAC11 were purchased from BPS Bioscience (San Diego, CA)(catalog numbers 50045 and 50021). Substrate Boc-Lys(TFA)-AMC was obtained from Bachem (Bupendorf, Switzerland) (catalog number 1-1985). HDAC inhibitor suberoylanilide hydroxamic acid (SAHA) was obtained from Indofine (Hillsborough Township, NJ) and trichostatin A (TSA) was obtained from Sigma-Aldrich (St. Louis, MO). […] HEPES pH 8.0 was obtained from Boston BioProducts (Ashland, MA), Tween-20 from Fisher Scientific (Hampton, NH)(catalog number BP337), TCEP from Calbiochem and 7.5% bovine serum albumin (BSA) from Life Technologies (Carlsbad, CA) (catalog number 15260037). 384-well, black assay plates were obtained from Corning (Corning, NY) (catalog number 3575).
(§2) Recombinant human HDAC1, HDAC2, and HDAC3/SMRT heterodimer were prepared by Merck Research Laboratories. […] The eluted protein was then passed over an anti-HDAC1 immunoaffinity column to remove any complexes containing HDAC1. […]
(§3) The histone deacetylase activities of HDAC1, HDAC2, HDAC3, HDAC6, and HDAC8 were measured in modified Fluor-de-Lys assays in 384-well format. In this assay, HDAC enzymes are initially incubated with an ε-acetyl (or -trifluoroacetyl)-L-lysine-containing substrate with a C-terminal amide having aminomethylcoumarin as the amine component. HDACs cleave the ε-acetyl group, rendering the resulting product susceptible to AMC cleavage by trypsin. The released AMC is then detected by its fluorescence.
(§4) The HDAC 1, 2 assays employed buffer A, which contained 20 mM HEPES, pH 8.0, 1 mM MgCl2, 137 mM NaCl, 2.7 mM KCl, 0.05% BSA. The HDAC3/SMRT assay employed buffer B, consisting of 20 mM HEPES, pH 8.0, 1 mM MgCl2, 50 mM NaCl, 2.7 mM KCl, 0.05% BSA, 0.005% Tween 20, and 10 μM IP4. The HDAC6 assay employed buffer C, consisting of 20 mM HEPES, pH 8.0, 1 mM MgCl2, 137 mM NaCl, 2.7 mM KCl, 0.5 mM TCEP (Calbiochem) and 0.05% BSA. The HDAC8 assay employed buffer D, consisting of 20 mM HEPES, pH 8.0, 1 mM MgCl2, 100 mM NaCl, 20 mM KCl, 0.1% n-octyl-β-D-glucoside (Anatrace, Maumee, OH) and 0.05% BSA. All steps were performed at room temperature (23° C.). The assay was performed by pre-incubating serial dilutions of test compounds with the target HDAC prior to initiation with substrate. Each compound was titrated in a 10-point dose response, using a 1:3 fold dilution scheme, with 0.15 ul of solution added by ECHO555 to the plate, followed by the addition of 20 μl of the appropriate HDAC isoform diluted in appropriate assay buffer. […] Final conditions used for each assay were: 1. HDAC 1, 0.3 nM total enzyme, 20 μM substrate BML-K1104; 2. HDAC 2, 1.5 nM total enzyme, 40 μM substrate BML-K1104; 3. HDAC 3/SMRT, 0.3 nM total enzyme, 20 μM substrate BML-K1104; 4. HDAC 6, 1.3 nM total enzyme, 2.5 μM substrate BML-K1104; 5. HDAC 8, 1.3 nM total enzyme, 200 μM substrate BML-K1178; the final high dose of test compound was 30 μM. […] The reactions were stopped and developed by addition of 30 ul of HDAC developer solution containing a saturating level of HDAC inhibitor as follows: 1.

human HDAC2 = biological target: T2, human HDAC2 (Homo sapiens, UniProt Q92769); assay: Human HDAC enzyme inhibitor Fluor-de-Lys assay, HDAC2; conditions: 1.5 nM enzyme, 40 μM substrate BML-KI104, 3 h pre-incubation, 60 min reaction; read-out: HDAC2_IC50
T2 construct: Full length human HDAC2-FLAG was expressed in baculovirus infected Sf9 cells; host or cells: baculovirus infected Sf9 cells
Excerpt: as §1, §2, §3, §4

[1] = biological target: T3, human HDAC3/SMRT heterodimer (Homo sapiens, UniProt O15379); assay: Human HDAC enzyme inhibitor Fluor-de-Lys assay, HDAC3/SMRT; conditions: HDAC3/SMRT 0.3 nM enzyme, 20 μM substrate BML-KI104, 10 μM IP4, 3 h pre-incubation, 60 min reaction; read-out: HDAC3_IC50
T3 construct: Full length human HDAC3-FLAG was expressed in HEK-293F cells along with SMRT; host or cells: HEK-293F cells
Excerpt: as §1, §2, §3, §4

T2 sequence (Q92769 whole entry): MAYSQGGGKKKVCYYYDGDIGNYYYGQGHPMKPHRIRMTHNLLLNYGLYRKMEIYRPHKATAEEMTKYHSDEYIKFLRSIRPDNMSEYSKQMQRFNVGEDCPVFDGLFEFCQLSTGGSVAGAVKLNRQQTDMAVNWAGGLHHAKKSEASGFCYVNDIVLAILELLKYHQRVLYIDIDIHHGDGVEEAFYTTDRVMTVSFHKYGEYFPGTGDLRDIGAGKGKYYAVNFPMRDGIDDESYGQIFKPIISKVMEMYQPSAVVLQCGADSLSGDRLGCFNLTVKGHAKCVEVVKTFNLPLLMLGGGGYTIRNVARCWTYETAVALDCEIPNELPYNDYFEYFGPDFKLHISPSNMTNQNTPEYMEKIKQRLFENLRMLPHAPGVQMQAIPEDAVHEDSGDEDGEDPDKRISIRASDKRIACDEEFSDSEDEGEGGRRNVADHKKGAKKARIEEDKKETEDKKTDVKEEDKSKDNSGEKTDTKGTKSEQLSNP
T3 sequence (O15379 whole entry): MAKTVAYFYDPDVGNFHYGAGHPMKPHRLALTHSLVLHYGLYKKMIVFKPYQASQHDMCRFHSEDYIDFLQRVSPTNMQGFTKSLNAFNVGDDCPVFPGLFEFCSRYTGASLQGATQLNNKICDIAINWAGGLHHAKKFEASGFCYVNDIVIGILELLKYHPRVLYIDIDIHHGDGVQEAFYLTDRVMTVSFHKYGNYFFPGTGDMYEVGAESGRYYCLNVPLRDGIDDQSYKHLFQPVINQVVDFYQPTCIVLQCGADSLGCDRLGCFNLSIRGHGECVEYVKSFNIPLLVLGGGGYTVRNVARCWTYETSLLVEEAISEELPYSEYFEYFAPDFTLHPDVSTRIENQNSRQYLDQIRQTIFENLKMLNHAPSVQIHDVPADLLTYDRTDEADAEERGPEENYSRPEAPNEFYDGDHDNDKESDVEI
T3 sequence (Q9Y618 1-899 partner limits assumed): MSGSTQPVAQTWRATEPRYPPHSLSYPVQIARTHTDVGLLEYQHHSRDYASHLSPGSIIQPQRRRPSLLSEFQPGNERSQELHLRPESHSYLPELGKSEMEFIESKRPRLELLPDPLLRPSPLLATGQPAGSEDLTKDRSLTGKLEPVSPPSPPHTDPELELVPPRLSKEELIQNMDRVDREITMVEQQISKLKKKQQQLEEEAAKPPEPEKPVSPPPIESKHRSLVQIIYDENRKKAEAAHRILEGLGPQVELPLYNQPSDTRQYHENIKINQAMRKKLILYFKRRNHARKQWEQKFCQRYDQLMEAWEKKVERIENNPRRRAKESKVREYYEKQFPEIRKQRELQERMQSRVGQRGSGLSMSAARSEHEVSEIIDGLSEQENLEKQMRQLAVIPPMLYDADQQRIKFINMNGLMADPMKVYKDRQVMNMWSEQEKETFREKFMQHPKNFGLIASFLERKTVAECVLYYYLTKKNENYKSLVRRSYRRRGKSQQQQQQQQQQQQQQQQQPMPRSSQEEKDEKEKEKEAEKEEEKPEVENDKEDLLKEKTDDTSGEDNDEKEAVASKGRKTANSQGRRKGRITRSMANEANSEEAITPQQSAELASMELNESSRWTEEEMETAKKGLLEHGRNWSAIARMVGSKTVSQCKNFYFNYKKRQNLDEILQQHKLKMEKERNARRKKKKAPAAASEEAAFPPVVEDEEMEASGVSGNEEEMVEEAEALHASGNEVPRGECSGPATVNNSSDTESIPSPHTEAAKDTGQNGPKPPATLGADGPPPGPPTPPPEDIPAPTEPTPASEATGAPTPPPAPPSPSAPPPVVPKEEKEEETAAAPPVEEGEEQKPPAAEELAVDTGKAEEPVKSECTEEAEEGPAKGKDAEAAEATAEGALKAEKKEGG
T1 sequence (Q13547 whole entry): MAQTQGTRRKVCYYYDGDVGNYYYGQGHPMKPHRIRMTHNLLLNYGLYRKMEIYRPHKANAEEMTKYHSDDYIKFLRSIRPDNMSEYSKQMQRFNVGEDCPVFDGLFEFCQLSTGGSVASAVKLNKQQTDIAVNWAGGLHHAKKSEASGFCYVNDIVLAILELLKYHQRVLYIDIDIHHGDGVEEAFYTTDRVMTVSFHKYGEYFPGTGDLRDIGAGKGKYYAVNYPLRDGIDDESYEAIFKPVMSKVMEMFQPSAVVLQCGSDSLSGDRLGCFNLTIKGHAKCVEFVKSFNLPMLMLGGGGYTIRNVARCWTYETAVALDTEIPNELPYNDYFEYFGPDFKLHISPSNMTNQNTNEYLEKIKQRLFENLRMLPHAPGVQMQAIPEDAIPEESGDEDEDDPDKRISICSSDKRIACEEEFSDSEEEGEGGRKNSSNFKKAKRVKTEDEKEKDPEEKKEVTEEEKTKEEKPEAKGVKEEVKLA

CN1CC(C(=O)N[C@@H](COCCCC(=O)c2ccon2)c2ncc(-c3ccccc3F)[nH]2)C1 [Compound 15, N-[(1R)-1-[5-(2-fluorophenyl)-1H-imidazol-2-yl]-2-(4-isoxazol-3-yl-4-oxobutoxy)ethyl]-1-methylazetidine-3-carboxamide]
pIC50 (human HDAC1): 8.40 | pIC50 (human HDAC2): 7.50 | pIC50 [1]: 8.80

— patent US12365674B2, “Inhibitors of histone deacetylase useful for the treatment or prevention of HIV infection” (Merck Sharp & Dohme LLC, priority 2019, dated 2025)
